According to patent US11352340B2, “Pyridine and pyridimine compounds as PI3K-gamma inhibitors” (Incyte Corporation, priority 2016, dated 2022):
Counter-ions that a name gives are not always drawn.

Experiments:
[1] = molecular target: PI3Kγ (p110γ) Recombinant Human Protein (Homo sapiens (Human), UniProt P48736); experiment: PI3K-γ Scintillation Proximity Assay; format: biochemical; conditions: read-out: PI3K-gamma SPA IC50
How it was run: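 Radiometric SPA: reaction at room temperature for 120 min using 2 μM ATP with [γ-33P]ATP tracer, 20 μM PIP2 substrate and 13 nM human PI3Kγ (MOPS pH 6.7, MgCl2, DTT, CHAPS; 2% DMSO). EDTA quench with WGA beads, scintillation count, and IC50 fit of percent-of-control activity.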

[2] = system: Phosphorylated Ribosomal Protein S6 (RPS6) in THP-1 cells; experiment: THP-1 RPS6 ELISA Assay; format: cell-based, Human; conditions: Homo sapiens, MCP-1 stimulated, phospho-RPS6 ELISA, read-out: THP p-RPS6 ELISA IC50
How it was run: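 Phospho-RPS6 in lysates measured by ELISA at 450 nm, corrected at 540 nm, after MCP-1 challenge (10 nM, 15 min) of THP-1 cells that were starved overnight and exposed to test compound for 2 h at 37° C, 2×10^5 cells/well. Curve fit of percent inhibition gives IC50.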

[3] = molecular target: PI3Kδ (p110δ/p85α) Recombinant Human Protein (Homo sapiens (Human), UniProt O00329); experiment: PI3Kδ Scintillation Proximity Assay; format: biochemical; conditions: read-out: PI3K-delta SPA IC50
How it was run: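 Assay conditions: 2 μM ATP (radiolabelled), 20 μM PIP2, 3.4 nM PI3Kδ, 20 mM MOPS pH 6.7 with 10 mM MgCl2, 5 mM DTT, 0.03% CHAPS, 2 h at room temperature. Signal from bead-captured 33P product; IC50 versus solvent control.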

Sequence of PI3Kγ (p110γ) Recombinant Human Protein (P48736 whole entry): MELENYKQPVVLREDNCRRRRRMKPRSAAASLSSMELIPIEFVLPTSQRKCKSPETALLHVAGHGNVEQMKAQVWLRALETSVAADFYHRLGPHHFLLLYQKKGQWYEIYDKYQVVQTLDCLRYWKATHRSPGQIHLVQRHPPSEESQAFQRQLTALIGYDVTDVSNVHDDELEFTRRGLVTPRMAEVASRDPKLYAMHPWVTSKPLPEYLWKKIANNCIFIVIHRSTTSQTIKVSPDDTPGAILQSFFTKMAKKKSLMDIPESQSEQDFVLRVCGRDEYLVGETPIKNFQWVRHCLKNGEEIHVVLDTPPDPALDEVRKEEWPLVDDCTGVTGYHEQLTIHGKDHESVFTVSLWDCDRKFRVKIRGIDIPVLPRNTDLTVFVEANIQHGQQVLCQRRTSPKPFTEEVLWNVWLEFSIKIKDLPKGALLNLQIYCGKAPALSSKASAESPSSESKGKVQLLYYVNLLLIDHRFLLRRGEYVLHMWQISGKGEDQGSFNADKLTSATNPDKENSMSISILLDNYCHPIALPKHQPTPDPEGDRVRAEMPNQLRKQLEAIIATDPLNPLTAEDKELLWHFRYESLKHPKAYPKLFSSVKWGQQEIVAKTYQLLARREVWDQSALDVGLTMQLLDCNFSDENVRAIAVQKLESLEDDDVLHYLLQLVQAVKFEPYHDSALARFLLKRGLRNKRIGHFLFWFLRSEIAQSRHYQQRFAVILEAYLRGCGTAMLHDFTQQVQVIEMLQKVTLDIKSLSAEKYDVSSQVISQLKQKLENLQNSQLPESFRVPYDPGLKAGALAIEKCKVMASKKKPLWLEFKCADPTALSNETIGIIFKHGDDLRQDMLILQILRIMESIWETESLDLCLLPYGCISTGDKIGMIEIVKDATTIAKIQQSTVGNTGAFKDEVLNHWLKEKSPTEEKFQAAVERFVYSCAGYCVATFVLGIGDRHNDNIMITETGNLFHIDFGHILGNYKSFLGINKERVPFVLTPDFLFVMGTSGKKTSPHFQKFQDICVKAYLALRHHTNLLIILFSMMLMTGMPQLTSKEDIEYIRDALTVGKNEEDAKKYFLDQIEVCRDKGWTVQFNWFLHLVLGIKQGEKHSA
Sequence of PI3Kδ (p110δ/p85α) Recombinant Human Protein (O00329 whole entry): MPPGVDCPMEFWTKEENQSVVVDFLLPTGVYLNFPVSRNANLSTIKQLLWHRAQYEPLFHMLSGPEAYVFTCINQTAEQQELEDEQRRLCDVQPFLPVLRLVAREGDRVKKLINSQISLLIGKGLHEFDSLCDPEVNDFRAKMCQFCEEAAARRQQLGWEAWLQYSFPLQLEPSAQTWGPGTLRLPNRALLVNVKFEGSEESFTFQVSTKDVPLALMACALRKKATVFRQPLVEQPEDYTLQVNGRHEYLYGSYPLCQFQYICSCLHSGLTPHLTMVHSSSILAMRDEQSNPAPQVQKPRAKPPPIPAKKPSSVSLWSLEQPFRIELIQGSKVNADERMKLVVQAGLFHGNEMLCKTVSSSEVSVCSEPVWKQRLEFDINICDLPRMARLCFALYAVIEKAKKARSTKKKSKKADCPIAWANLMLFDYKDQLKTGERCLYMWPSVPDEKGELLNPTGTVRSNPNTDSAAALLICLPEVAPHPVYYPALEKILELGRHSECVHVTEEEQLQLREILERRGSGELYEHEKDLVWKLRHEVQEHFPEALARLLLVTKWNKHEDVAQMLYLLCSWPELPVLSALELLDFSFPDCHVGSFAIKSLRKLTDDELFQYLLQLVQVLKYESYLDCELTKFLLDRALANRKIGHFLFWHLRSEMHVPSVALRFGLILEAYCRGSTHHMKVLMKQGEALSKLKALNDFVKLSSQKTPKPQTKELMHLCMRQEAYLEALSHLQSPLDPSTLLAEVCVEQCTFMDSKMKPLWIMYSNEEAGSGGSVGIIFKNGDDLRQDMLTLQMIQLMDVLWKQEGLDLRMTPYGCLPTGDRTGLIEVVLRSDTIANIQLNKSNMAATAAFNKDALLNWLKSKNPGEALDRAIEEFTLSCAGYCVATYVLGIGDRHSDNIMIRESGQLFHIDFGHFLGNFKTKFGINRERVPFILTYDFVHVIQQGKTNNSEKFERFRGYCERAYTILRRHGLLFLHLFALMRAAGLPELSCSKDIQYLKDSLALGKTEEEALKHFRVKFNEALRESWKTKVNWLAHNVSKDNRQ
Sequence of PI3Kδ (p110δ/p85α) Recombinant Human Protein (P27986 whole entry partner): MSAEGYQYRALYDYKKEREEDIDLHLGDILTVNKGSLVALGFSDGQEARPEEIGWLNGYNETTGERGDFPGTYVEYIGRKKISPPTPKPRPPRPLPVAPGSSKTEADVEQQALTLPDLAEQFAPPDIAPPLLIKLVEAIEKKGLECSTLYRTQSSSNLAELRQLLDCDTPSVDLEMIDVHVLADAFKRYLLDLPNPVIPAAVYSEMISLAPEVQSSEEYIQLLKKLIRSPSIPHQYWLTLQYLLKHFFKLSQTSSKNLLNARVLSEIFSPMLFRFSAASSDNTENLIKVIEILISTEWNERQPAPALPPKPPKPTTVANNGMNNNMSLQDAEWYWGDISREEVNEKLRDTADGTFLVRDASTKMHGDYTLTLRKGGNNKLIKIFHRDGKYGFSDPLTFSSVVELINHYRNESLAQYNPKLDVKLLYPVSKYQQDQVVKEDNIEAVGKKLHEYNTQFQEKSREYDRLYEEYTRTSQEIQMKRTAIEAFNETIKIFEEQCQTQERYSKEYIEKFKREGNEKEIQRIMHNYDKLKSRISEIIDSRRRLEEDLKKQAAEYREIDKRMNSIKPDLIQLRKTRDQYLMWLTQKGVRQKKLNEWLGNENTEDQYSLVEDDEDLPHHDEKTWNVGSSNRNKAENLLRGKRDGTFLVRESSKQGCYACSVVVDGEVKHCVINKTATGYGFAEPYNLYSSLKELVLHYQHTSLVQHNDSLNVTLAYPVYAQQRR

Row | IC50 [1] [nM] | IC50 [2] [nM] | IC50 [3] [nM] | SMILES
1 | ≤ 50 | ≤ 300 | ≤ 50 | Cc1nc(-c2cc(-c3cncc(C(=O)N4CCC(c5ccccc5)CC4)c3)ccn2)[nH]c1C [Example 186, 2′-(4,5-Dimethyl-1H-imidazol-2-yl)-5-[(4-phenylpiperidin-1-yl)carbonyl]-3,4′-bipyridine trifluoroacetate salt]
2 | ≤ 50 | ≤ 300 | ≤ 50 | Cc1nc(-c2cc(-c3cncc(C(=O)N4CCC4)c3)ccn2)[nH]c1C [Example 191, 5-(Azetidin-1-ylcarbonyl)-2′-(4,5-dimethyl-1H-imidazol-2-yl)-3,4′-bipyridine trifluoroacetate salt]
3 | ≤ 100 | 1000 to 5000 | ≤ 100 | Cc1nc(-c2cc(-c3cncc(C(=O)NCc4ccccc4)c3)ccn2)[nH]c1C [Example 192, N-Benzyl-2′-(4,5-dimethyl-1H-imidazol-2-yl)-3,4′-bipyridine-5-carboxamide trifluoroacetate salt]
4 | ≤ 50 | ≤ 300 | ≤ 50 | Cc1nc(-c2cc(-c3cncc(C(=O)N(C)Cc4ccccc4)c3)ccn2)[nH]c1C [Example 193, N-Benzyl-2′-(4,5-dimethyl-1H-imidazol-2-yl)-N-methyl-3,4′-bipyridine-5-carboxamide trifluoroacetate salt]
5 | ≤ 50 | ≤ 300 | ≤ 50 | Cc1nc(-c2cc(-c3cncc(C(=O)N(C)c4ccccc4)c3)ccn2)[nH]c1C [Example 194, 2′-(4,5-Dimethyl-1H-imidazol-2-yl)-N-methyl-N-phenyl-3,4′-bipyridine-5-carboxamide trifluoroacetate salt]
6 | ≤ 100 | 300 to 1000 | ≤ 50 | Cc1nc(-c2cc(-c3cncc(C(=O)N4CCC(c5cnccn5)C4)c3)ccn2)[nH]c1C (stereo not drawn) [Example 197, 2′-(4,5-Dimethyl-1H-imidazol-2-yl)-5-[(3-pyrazin-2-ylpyrrolidin-1-yl)carbonyl]-3,4′-bipyridine trifluoroacetate salt]

More lines, now with the values behind:

Row | SMILES | IC50 [1] [nM] | IC50 [2] [nM] | IC50 [3] [nM]
7 | Cc1nc(-c2cc(-c3cncc(C(=O)N4CC(C)(C)C4)c3)ccn2)[nH]c1C [Example 185, 5-[(3,3-Dimethylazetidin-1-yl)carbonyl]-2′-(4,5-dimethyl-1H-imidazol-2-yl)-3,4′-bipyridine trifluoroacetate salt] | ≤ 50 | ≤ 300 | ≤ 100
8 | Cc1nc(-c2cc(-c3cncc(C(=O)N4CC[C@H]5CCCC[C@@H]5C4)c3)ccn2)[nH]c1C [Example 187, 2′-(4,5-Dimethyl-1H-imidazol-2-yl)-5-[(4aR,8aS)-octahydroisoquinolin-2(1H)-ylcarbonyl]-3,4′-bipyridine trifluoroacetate salt] | ≤ 50 | 300 to 1000 | ≤ 100
9 | CCN(C)C(=O)c1cncc(-c2ccnc(-c3nc(C)c(C)[nH]3)c2)c1 [Example 198, 2′-(4,5-Dimethyl-1H-imidazol-2-yl)-N-ethyl-N-methyl-3,4′-bipyridine-5-carboxamide trifluoroacetate salt] | ≤ 50 | 300 to 1000 | ≤ 50
10 | COC1CN(C(=O)c2cncc(-c3ccnc(-c4nc(C)c(C)[nH]4)c3)c2)C1 [Example 199, 2′-(4,5-Dimethyl-1H-imidazol-2-yl)-5-[(3-methoxyazetidin-1-yl)carbonyl]-3,4′-bipyridine] | ≤ 50 | ≤ 300 | ≤ 50
11 | Cc1nc(-c2cc(-c3cncc(C(=O)N(C)CCO)c3)ccn2)[nH]c1C [Example 201, 2′-(4,5-Dimethyl-1H-imidazol-2-yl)-N-(2-hydroxyethyl)-N-methyl-3,4′-bipyridine-5-carboxamide trifluoroacetate salt] | ≤ 50 | 300 to 1000 | ≤ 500
12 | Cc1nc(-c2cc(-c3cncc(C(=O)NCC4CC4)c3)ccn2)[nH]c1C [Example 202, N-(Cyclopropylmethyl)-2′-(4,5-dimethyl-1H-imidazol-2-yl)-3,4′-bipyridine-5-carboxamide trifluoroacetate salt] | ≤ 100 | 300 to 1000 | ≤ 100
